Measurements reported in patent US20070203202A1, “Methods of reducing adverse events associated with pirfenidone therapy” (priority 2005, published 2007).
Where two headings read alike, the source gives them in different places.

What was measured:
[1] = Single-dose four-treatment crossover study of the effect of food and antacid on adverse events; type: in vivo, human; conditions: for subjects who experienced an adverse event: single oral dose 3×267 mg, 16 healthy adults
Description: (§1) A study was designed to evaluate the effect of food, antacids, and food taken with antacids on adverse events associated with pirfenidone use. The trial was conducted as a randomized, open-label, four-treatment crossover, with a single dose for each treatment period and a 2-day washout period between study treatments. 16 healthy adults between the ages of 50 and 79 years having body mass indices between 18 and 30 (inclusive) were enrolled and completed all 4 treatment arms. The treatment arms were as follows:
A) pirfenidone alone (Fasted);
B) pirfenidone within 1 minute following a dose of antacid (20 mL Mylanta® Maximum Strength Liquid) (Fasted+Antacid);
C) pirfenidone 5 minutes after completing a standard meal (Fed); and
D) pirfenidone 5 minutes after completing a standard meal, then within 1 minute, followed by a dose of antacid (Fed+Antacid).
(§2) All subjects were admitted to the clinic for clinical evaluation the day prior to receiving the first dose of the study medication and remained confined for 13 days. Following an overnight fast of at least 10 hours (h), subjects were randomized to one of the above-described 4 treatment sequences. Each dose of pirfenidone (3×267 mg capsules) was administered orally with 240 mL room temperature water on days 1, 4, 7, and 10 in the morning, following an overnight fast of at least 10 hours. The washout period between treatments was 2 days. A standard meal consisted of 2 fried eggs, 2 strips of bacon, 2 slices of toast, 2 pats of butter, hash brown potatoes (4 oz), and whole milk (8 oz).
On each study day, adverse events were reviewed with the patients as follows. Before administration of the first dose of the study drug, study site personnel noted the occurrence and nature of each subject's medical condition(s). During the trial, site personnel again noted any change in the condition(s) or occurrence and nature of any adverse events. The severity of adverse events were graded based on the Modified Common Toxicity Criteria and the relationship of the study drug to the adverse event determined.

[2] = Pharmacokinetics of an 801 mg pirfenidone dose taken with or without food; type: in vivo, human; conditions: for half-life: human, plasma, oral, 801 mg, read-out: mean absorption half life (converted)
Description: as §1, §2
Of 7 subjects who reported nausea, 5 of 16 (31%) were fasted compared to only 2 of 16 (13%) fed subjects. Of 5 subjects reporting dizziness, 4 of 16 (25%) were fasted, while only 1 of 16 (6%) was fed. Of 3 subjects reporting somnolence, 2 of 16 (13%) were fasted and 1 of 16 (6%) were fed. Of 3 subjects reporting headaches, 2 of 16 (13%) were fasted and 1 of 16 (6%) were fed.

[3] = Multiple-dose escalating-dose study of adverse events, doses taken with food; type: in vivo, human; conditions: 801 to 4005 mg/day escalating
Description: A second study was designed to examine incidences of adverse events on multiple ascending daily doses of pirfenidone. The trial was conducted as an open-label, escalating-dose study with no washout period between dose escalations. 25 healthy adults between the ages of 45 and 79 (inclusive) having body mass indices between 18 and 30 (inclusive) were enrolled. 22 adults completed the treatment. Each volunteer received from 801 mg/day to 4005 mg/day of pirfenidone divided into three equal doses as follows:
All subjects were admitted to the clinic for clinical evaluation the day before the first dose of study medication and remained confined for 17 days. Each subject received all dose levels of the study drug unless adverse events or the clinical judgment of the trial physician precluded the continuation of treatment. All doses were taken with 240 mL room temperature water and with food (excluding grapefruit juice). TID doses times were ˜0800, ˜1200, and ˜1800.

[4] = test system: fibrogenic cytokines such as TGF-β1, bFGF, PDGF, and EGF; conditions: Zhang S et al. 1998; cited from earlier work
[5] = test system: TNF-α; conditions: macrophages and other cells; Cain et al. 1998; cited from earlier work
[6] = 801 mg pirfenidone without food

SMILES: Cc1ccc(=O)n(-c2ccccc2)c1 [pirfenidone, 5-methyl-1-phenyl-2-(1H)-pyridone]
- incidence of somnolence ([1]; all arms, 4 of 16): 25%
- incidence of dizziness ([1]; all arms, 6 of 16): 38%
- incidence of nausea ([1]; all arms, 7 of 16): 44%
- subjects with adverse events in whom the adverse events were mild ([1]; all arms, 8 of the 12 subjects with an adverse event): 66.7%
- subjects with at least 1 adverse event in total ([1]; all four treatment arms, 12 of 16 subjects): 75%
- incidence of headaches ([1]; fasted, 2 of 16): 13%
- incidence of somnolence ([1]; fasted, 2 of 16): 13%
- incidence of dizziness ([1]; fasted, 4 of 16): 25%
- incidence of nausea ([1]; fasted, 5 of 16): 31%
- incidence of dizziness ([1]; fed, 1 of 16): 6%
- incidence of headaches ([1]; fed, 1 of 16): 6%
- incidence of somnolence ([1]; fed, 1 of 16): 6%
- incidence of nausea ([1]; fed, 2 of 16): 13%
- subjects who experienced an adverse event ([1]; pirfenidone alone without food (Fasted)): 56.3%
- subjects who experienced an adverse event ([1]; with food (Fed)): 31.3%
- subjects who experienced an adverse event ([1]; with food and antacid (Fed+Antacid)): 25%
- subjects who experienced an adverse event ([1]; within 1 minute following a dose of antacid (Fasted+Antacid)): 56.3%
- mean maximum plasma concentration ([2]; 801 mg pirfenidone with food): 7874 ng/mL
- mean maximum plasma concentration [2, 6]: 15724 ng/mL
- half-life ([2]; 801 mg pirfenidone with food): 1.78 h
- half-life [2, 6]: 0.572 h
- subjects with at least one adverse event ([3]; TID with food, 23 of 25 healthy adults): 92%
- incidence of headache ([3]; with food, 7 of 25): 28%
- incidence of somnolence ([3]; with food, 8 of 25): 32%
- incidence of nausea ([3]; with food, 9 of 25): 36%
- subjects with adverse events in whom the adverse events were mild ([3]; with food, 22 of the 23 subjects): 95%
- effect on biosynthesis or release of fibrogenic cytokines [4]: inhibits excessive biosynthesis or release
- effect on synthesis and release of TNF-α [5]: blocks the synthesis and release of excessive amounts of TNF-α
